Experimental data as given in the NIST ThermoML archive (doi:10.1016/j.jct.2013.05.019).

Assay: xn = mol fraction of the nth substance listed
Conditions: 101 kPa, Liquid; for viscosity: Falling or rolling sphere viscometry; for mass density: Vibrating tube method; for electrical conductivity: Alternating current cell with electrodes

CC(=O)O.CCCCN [butylammonium acetate] + O
Conditions | electrical conductivity [S/m] | mass density [kg/m3] | viscosity [mPa·s]
293.15 K, x1 = 0.031 | – | 1009.89 | 2.659
293.15 K, x1 = 0.06 | – | 1015.91 | 4.018
293.15 K, x1 = 0.0992 | – | 1014.35 | 6.792
293.15 K, x1 = 0.2007 | – | 1003.86 | 16.91
293.15 K, x1 = 0.2999 | – | 993.39 | 35.04
293.15 K, x1 = 0.4013 | – | 984.8 | 53.35
293.15 K, x1 = 0.5004 | – | 977.72 | 101.3
293.15 K, x1 = 0.5666 | – | 974.54 | 141.64
293.15 K, x1 = 0.7973 | – | 964.56 | 390.26
293.15 K, x1 = 0.8972 | – | 962.15 | 579.35
293.15 K, x1 = 1 | – | 959.61 | 771.69
298.15 K, x1 = 0.0006 | 0.168 | – | –
298.15 K, x1 = 0.0012 | 0.316 | – | –
298.15 K, x1 = 0.0018 | 0.434 | – | –
298.15 K, x1 = 0.0026 | 0.572 | – | –
298.15 K, x1 = 0.0032 | 0.67 | – | –
298.15 K, x1 = 0.0046 | 0.842 | – | –
298.15 K, x1 = 0.0078 | 1.12 | – | –
298.15 K, x1 = 0.0121 | 1.34 | – | –
298.15 K, x1 = 0.0181 | 1.45 | – | –
298.15 K, x1 = 0.031 | – | 1006.58 | 2.328
298.15 K, x1 = 0.0329 | 1.54 | – | –
298.15 K, x1 = 0.06 | – | 1013.18 | 3.345
298.15 K, x1 = 0.0682 | 1.58 | – | –
298.15 K, x1 = 0.0992 | – | 1011.15 | 5.626
298.15 K, x1 = 0.0999 | 1.54 | – | –
298.15 K, x1 = 0.2001 | 1.16 | – | –
298.15 K, x1 = 0.2007 | – | 1000.82 | 13.83
298.15 K, x1 = 0.2999 | – | 990.34 | 28.14
298.15 K, x1 = 0.3479 | 0.513 | – | –
298.15 K, x1 = 0.4013 | – | 981.74 | 46.77
298.15 K, x1 = 0.5004 | – | 974.67 | 77.42
298.15 K, x1 = 0.5427 | 0.164 | – | –
298.15 K, x1 = 0.5666 | – | 971.45 | 102.65
298.15 K, x1 = 0.7973 | – | 961.46 | 283.43
298.15 K, x1 = 0.8065 | 0.074 | – | –
298.15 K, x1 = 0.8972 | – | 958.98 | 415.18
298.15 K, x1 = 1 | 0.021 | 956.44 | 546.35
303.15 K, x1 = 0.031 | – | 1003.24 | 2.196
303.15 K, x1 = 0.06 | – | 1009.87 | 2.864
303.15 K, x1 = 0.0992 | – | 1007.91 | 4.714
303.15 K, x1 = 0.2007 | – | 997.74 | 11.79
303.15 K, x1 = 0.2999 | – | 987.26 | 22.91
303.15 K, x1 = 0.4013 | – | 978.64 | 40.9
303.15 K, x1 = 0.5004 | – | 971.64 | 60.97
303.15 K, x1 = 0.5666 | – | 968.34 | 82.19
303.15 K, x1 = 0.7973 | – | 958.36 | 211.13
303.15 K, x1 = 0.8972 | – | 955.83 | 304.3
303.15 K, x1 = 1 | – | 953.33 | 397.17
308.15 K, x1 = 0.031 | – | 999.87 | 1.864
308.15 K, x1 = 0.06 | – | 1006.52 | 2.439
308.15 K, x1 = 0.0992 | – | 1004.62 | 3.985
308.15 K, x1 = 0.2007 | – | 994.62 | 9.893
308.15 K, x1 = 0.2999 | – | 984.17 | 18.78
308.15 K, x1 = 0.4013 | – | 975.55 | 35.59
308.15 K, x1 = 0.5004 | – | 968.58 | 48.93
308.15 K, x1 = 0.5666 | – | 965.22 | 65.48
308.15 K, x1 = 0.7973 | – | 955.23 | 160.94
308.15 K, x1 = 0.8972 | – | 952.69 | 227.72
308.15 K, x1 = 1 | – | 950.15 | 294.59
313.15 K, x1 = 0.031 | – | 996.47 | 1.665
313.15 K, x1 = 0.06 | – | 1003.14 | 2.132
313.15 K, x1 = 0.0992 | – | 1001.29 | 3.489
313.15 K, x1 = 0.2007 | – | 991.43 | 8.389
313.15 K, x1 = 0.2999 | – | 981.07 | 15.67
313.15 K, x1 = 0.4013 | – | 972.44 | 31
313.15 K, x1 = 0.5004 | – | 965.54 | 42.95
313.15 K, x1 = 0.5666 | – | 962.11 | 56.12
313.15 K, x1 = 0.7973 | – | 952.09 | 133.31
313.15 K, x1 = 0.8972 | – | 949.53 | 180.6
313.15 K, x1 = 1 | – | 946.98 | 222.24

CCCC[NH3+].O=[N+]([O-])[O-] [n-butylammonium nitrate] + O
Conditions | electrical conductivity [S/m] | mass density [kg/m3] | viscosity [mPa·s]
293.15 K, x1 = 0.1 | – | 1059.97 | 2.468
293.15 K, x1 = 0.2001 | – | 1081.27 | 4.454
293.15 K, x1 = 0.3009 | – | 1090.62 | 7.217
293.15 K, x1 = 0.4004 | – | 1095.83 | 11.69
293.15 K, x1 = 0.5011 | – | 1099.15 | 17.61
293.15 K, x1 = 0.6505 | – | 1102.02 | 31.21
293.15 K, x1 = 0.7869 | – | 1103.62 | 51.54
293.15 K, x1 = 0.9022 | – | 1104.42 | 78.32
293.15 K, x1 = 1 | – | 1104.68 | 111.35
298.15 K, x1 = 0.001 | 0.583 | – | –
298.15 K, x1 = 0.002 | 0.997 | – | –
298.15 K, x1 = 0.004 | 1.55 | – | –
298.15 K, x1 = 0.005 | 1.73 | – | –
298.15 K, x1 = 0.006 | 1.89 | – | –
298.15 K, x1 = 0.0081 | 2.18 | – | –
298.15 K, x1 = 0.02 | 2.95 | – | –
298.15 K, x1 = 0.03 | 3.19 | – | –
298.15 K, x1 = 0.05 | 3.4 | – | –
298.15 K, x1 = 0.0609 | 3.46 | – | –
298.15 K, x1 = 0.1 | 3.42 | 1056.89 | 2.221
298.15 K, x1 = 0.1999 | 3.31 | – | –
298.15 K, x1 = 0.2001 | – | 1078.05 | 3.908
298.15 K, x1 = 0.2997 | 2.95 | – | –
298.15 K, x1 = 0.3009 | – | 1087.35 | 6.297
298.15 K, x1 = 0.3999 | 2.52 | – | –
298.15 K, x1 = 0.4004 | – | 1092.56 | 10.08
298.15 K, x1 = 0.4998 | 2.08 | – | –
298.15 K, x1 = 0.5011 | – | 1095.89 | 15.1
298.15 K, x1 = 0.5986 | 1.77 | – | –
298.15 K, x1 = 0.6505 | – | 1098.8 | 26.25
298.15 K, x1 = 0.6979 | 1.45 | – | –
298.15 K, x1 = 0.7869 | – | 1100.42 | 42.46
298.15 K, x1 = 0.799 | 1.23 | – | –
298.15 K, x1 = 0.9001 | 1.01 | – | –
298.15 K, x1 = 0.9022 | – | 1101.25 | 65.05
298.15 K, x1 = 1 | 0.867 | 1101.52 | 89.95
303.15 K, x1 = 0.1 | – | 1053.73 | 1.963
303.15 K, x1 = 0.2001 | – | 1074.8 | 3.459
303.15 K, x1 = 0.3009 | – | 1084.06 | 5.545
303.15 K, x1 = 0.4004 | – | 1089.29 | 8.783
303.15 K, x1 = 0.5011 | – | 1092.64 | 13.08
303.15 K, x1 = 0.6505 | – | 1095.58 | 22.35
303.15 K, x1 = 0.7869 | – | 1097.24 | 35.45
303.15 K, x1 = 0.9022 | – | 1098.1 | 53.53
303.15 K, x1 = 1 | – | 1098.38 | 73.04
308.15 K, x1 = 0.1 | – | 1050.52 | 1.754
308.15 K, x1 = 0.2001 | – | 1071.53 | 3.088
308.15 K, x1 = 0.3009 | – | 1080.78 | 4.924
308.15 K, x1 = 0.4004 | – | 1086.02 | 7.715
308.15 K, x1 = 0.5011 | – | 1089.4 | 11.42
308.15 K, x1 = 0.6505 | – | 1092.38 | 19.25
308.15 K, x1 = 0.7869 | – | 1094.08 | 29.98
308.15 K, x1 = 0.9022 | – | 1094.97 | 44.59
308.15 K, x1 = 1 | – | 1095.26 | 60.25
313.15 K, x1 = 0.1 | – | 1047.4 | 1.579
313.15 K, x1 = 0.2001 | – | 1068.24 | 2.774
313.15 K, x1 = 0.3009 | – | 1077.49 | 4.401
313.15 K, x1 = 0.4004 | – | 1082.76 | 6.823
313.15 K, x1 = 0.5011 | – | 1086.16 | 10.04
313.15 K, x1 = 0.6505 | – | 1089.2 | 16.75
313.15 K, x1 = 0.7869 | – | 1090.94 | 25.8
313.15 K, x1 = 0.9022 | – | 1091.86 | 37.54
313.15 K, x1 = 1 | – | 1092.17 | 50.12
